Experimental data taken from US20250223268A1, “4-Methylsulfonylbenzamide Compound, Preparation Method, Herbicidal Composition And Use” (Jiangsu Flag Chemical Industry Co., Ltd., priority 2022, published 2025).

Columns and labels:
Assay type in all cases: in vivo
[1] = tested on: Digitaria sanguinalis; test: Greenhouse herbicidal activity and crop safety comparison (Test Example 2)
Outline: (§1)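 Fresh weight inhibition, banded into grades A to E (E <20%), was rated 14-21 days after foliar spraying of 3-6 leaf plants, or 14-30 days after a soil spray applied 24 h post-sowing.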

[2] = tested on: Oryza sativa subsp. indica; test: as above
Outline: as §1

[3] = tested on: Echinochloa crusgalli; test: as above
Outline: as §1

[4] = tested on: Oryza sativa subsp. japonica; test: as above
Outline: as §1

[5] = tested on: Zea mays; test: as above
Outline: as §1

[6] = tested on: Eclipta prostrata; test: Greenhouse herbicidal activity assay, post-emergence; settings: Post-emergence test, rate 150 g a.i./hm^2, grade by fresh weight inhibition rate
Outline: (§2)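 Graded A (≥80%) to E (<20%) by fresh weight inhibition, read 14-21 days after spraying. Plants were pot-grown in a growth chamber and received foliar application at the 3-6 leaf stage, being air-dried and returned to the chamber afterwards.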

[7] = tested on: Leptochloa chinensis; test: as above; settings: Post-emergence test, rate 150 g a.i./hm^2, grade by fresh weight inhibition rate
Outline: as §2

[8] = tested on: Digitaria sanguinalis; test: as above; settings: Post-emergence test, rate 150 g a.i./hm^2, grade by fresh weight inhibition rate
Outline: as §2

[9] = tested on: Echinochloa crusgalli; test: as above; settings: Post-emergence test, rate 150 g a.i./hm^2, grade by fresh weight inhibition rate
Outline: as §2

[10] = tested on: Cyperus iria; test: as above; settings: Post-emergence test, rate 150 g a.i./hm^2, grade by fresh weight inhibition rate
Outline: as §2

| Structure (SMILES) | Oryza sativa subsp. indica, grading of fresh weight inhibition rate (crop safety) ([2]; Rate 75 g/ha) | Oryza sativa subsp. indica, grading of fresh weight inhibition rate (crop safety) ([2]; Rate 150 g/ha) | Oryza sativa subsp. japonica, grading of fresh weight inhibition rate (crop safety) ([4]; Rate 75 g/ha) | Oryza sativa subsp. japonica, grading of fresh weight inhibition rate (crop safety) ([4]; Rate 150 g/ha) | Zea mays, grading of fresh weight inhibition rate (crop safety) ([5]; Rate 75 g/ha) | Zea mays, grading of fresh weight inhibition rate (crop safety) ([5]; Rate 150 g/ha) | Digitaria sanguinalis, control efficacy grading (fresh weight inhibition rate) ([1]; Rate 150 g/ha) | Echinochloa crusgalli, control efficacy grading (fresh weight inhibition rate) ([3]; Rate 75 g/ha) | Echinochloa crusgalli, control efficacy grading (fresh weight inhibition rate) ([3]; Rate 150 g/ha) | Control efficacy grade, Eclipta prostrata [6] | Control efficacy grade, Digitaria sanguinalis [8] | Control efficacy grade, Echinochloa crusgalli [9] | Control efficacy grade, Cyperus iria [10] | further results |
| --- | --- | --- | --- | --- | --- | --- | --- | --- | --- | --- | --- | --- | --- | --- |
| CC(C)S(=O)(=O)c1c(S(C)(=O)=O)ccc(C(=O)Nc2ncnn2C)c1Cl [Compound 2-10, 2-chloro-3-(isopropylsulfonyl)-N-(1-methyl-H-1,2,4-triazol-5-yl)-4-(methylsulfonyl)benzamide] | E (Fresh weight inhibition rate<20%) | E (Fresh weight inhibition rate<20%) | E (Fresh weight inhibition rate<20%) | E (Fresh weight inhibition rate<20%) | E (Fresh weight inhibition rate<20%) | E (Fresh weight inhibition rate<20%) | – | – | – | – | – | – | – | inhibition at 75 g/ha ([1]; Digitaria sanguinalis, Rate 75 g/ha, read-out: Digitaria sanguinalis, control efficacy grading (fresh weight inhibition rate)): 80 to 100%; inhibition at 150 g/ha ([1]; Digitaria sanguinalis, Rate 150 g/ha, read-out: Digitaria sanguinalis, control efficacy grading (fresh weight inhibition rate)): 80 to 100%; inhibition at 75 g/ha ([3]; Echinochloa crus-galli, Rate 75 g/ha, read-out: Echinochloa crusgalli, control efficacy grading (fresh weight inhibition rate)): 80 to 100%; inhibition at 150 g/ha ([3]; Echinochloa crus-galli, Rate 150 g/ha, read-out: Echinochloa crusgalli, control efficacy grading (fresh weight inhibition rate)): 80 to 100%; pest or weed control at 150 g/ha ([6]; Eclipta prostrata, read-out: Control efficacy grade, Eclipta prostrata): 80 to 100%; pest or weed control at 150 g/ha ([7]; Dinebra chinensis, read-out: Control efficacy grade, Leptochloa chinensis): 80 to 100%; pest or weed control at 150 g/ha ([8]; Digitaria sanguinalis, read-out: Control efficacy grade, Digitaria sanguinalis): 80 to 100%; pest or weed control at 150 g/ha ([9]; Echinochloa crus-galli, read-out: Control efficacy grade, Echinochloa crusgalli): 80 to 100%; pest or weed control at 150 g/ha ([10]; Cyperus iria, read-out: Control efficacy grade, Cyperus iria): 80 to 100% |
| Cn1ncnc1NC(=O)c1ccc(S(C)(=O)=O)c(S(=O)(=O)C2CCC2)c1Cl [Compound 2-41] | E (Fresh weight inhibition rate<20%) | E (Fresh weight inhibition rate<20%) | E (Fresh weight inhibition rate<20%) | E (Fresh weight inhibition rate<20%) | E (Fresh weight inhibition rate<20%) | E (Fresh weight inhibition rate<20%) | A (Fresh weight inhibition rate≥80% to 100%) | A (Fresh weight inhibition rate≥80% to 100%) | A (Fresh weight inhibition rate≥80% to 100%) | A (Fresh weight inhibition rate≥80% to 100%) | A (Fresh weight inhibition rate≥80% to 100%) | A (Fresh weight inhibition rate≥80% to 100%) | A (Fresh weight inhibition rate≥80% to 100%) | – |
| Cn1ncnc1NC(=O)c1ccc(S(C)(=O)=O)c(S(=O)(=O)C2CCCC2)c1Cl [Compound 2-46] | E (Fresh weight inhibition rate<20%) | E (Fresh weight inhibition rate<20%) | E (Fresh weight inhibition rate<20%) | E (Fresh weight inhibition rate<20%) | E (Fresh weight inhibition rate<20%) | E (Fresh weight inhibition rate<20%) | A (Fresh weight inhibition rate≥80% to 100%) | A (Fresh weight inhibition rate≥80% to 100%) | A (Fresh weight inhibition rate≥80% to 100%) | A (Fresh weight inhibition rate≥80% to 100%) | A (Fresh weight inhibition rate≥80% to 100%) | A (Fresh weight inhibition rate≥80% to 100%) | A (Fresh weight inhibition rate≥80% to 100%) | Control efficacy grade, Leptochloa chinensis [7]: A (Fresh weight inhibition rate≥80% to 100%) |
